Assay results reported in patent US9974761B2, “Medications for deposition on biological surfaces” (The Procter & Gamble Company, priority 2014, dated 2018).

System: human TRPM8
Test: TRPM8 Protocol-FLIPR Assay (intracellular Ca2+)
Assay type: cell-based
Conditions: for TRPM8 Time Course Activity 50 sec % of WS5 / TRPM8 Time Course Activity 3 min % of WS5 / TRPM8 Time Course Activity 5 min % of WS5 / TRPM8 Time Course Activity 10 min % of WS5: vs 30 uM WS-5; for TRPM8 Time Course Activity 50 sec: fluorescence at 50 sec; for TRPM8 Time Course Activity 3 min: fluorescence at 3 min; for TRPM8 Time Course Activity 5 min: fluorescence at 5 min; for TRPM8 Time Course Activity 10 min: fluorescence at 10 min

In the case of `CC(C)[C@@H]1CC[C@@H](C)C[C@H]1C(=O)NCC(NC(=O)[C@@H](C)N)c1ccccc1` (single isomer, unassigned) [Compound 28 fraction 2], the “TRPM8 Time Course Activity 50 sec % of WS5” value (dose 6.1 nM) is reported as 19.3%, the “TRPM8 Time Course Activity 3 min % of WS5” value (dose 6.1 nM) is reported as 46.0% and the “TRPM8 Time Course Activity 5 min % of WS5” value (dose 6.1 nM) is reported as 50.3%. For the same molecule, the “TRPM8 Time Course Activity 10 min % of WS5” value (dose 6.1 nM) was 50.6%, the “TRPM8 Time Course Activity 50 sec” value (dose 6.1 nM) was 1944.0 and the “TRPM8 Time Course Activity 3 min” value (dose 6.1 nM) was 4350.0. For the same molecule, the “TRPM8 Time Course Activity 5 min” value (dose 6.1 nM) was 4763.0, the “TRPM8 Time Course Activity 10 min” value (dose 6.1 nM) was 4844.0 and the “TRPM8 Time Course Activity 50 sec % of WS5” value (dose 12.2 nM) was 18.0%. For the same molecule, the “TRPM8 Time Course Activity 3 min % of WS5” value (dose 12.2 nM) was 57.6%, the “TRPM8 Time Course Activity 5 min % of WS5” value (dose 12.2 nM) was 65.7% and the “TRPM8 Time Course Activity 10 min % of WS5” value (dose 12.2 nM) was 71.1%. The “TRPM8 Time Course Activity 50 sec” value (dose 12.2 nM) was 1814.0, the “TRPM8 Time Course Activity 3 min” value (dose 12.2 nM) was 5446.0 and the “TRPM8 Time Course Activity 5 min” value (dose 12.2 nM) was 6224.0. The “TRPM8 Time Course Activity 10 min” value (dose 12.2 nM) was 6809.0, the “TRPM8 Time Course Activity 50 sec % of WS5” value (dose 24.4 nM) was 23.0% and the “TRPM8 Time Course Activity 3 min % of WS5” value (dose 24.4 nM) was 68.2%. For the same molecule, the “TRPM8 Time Course Activity 5 min % of WS5” value (dose 24.4 nM) was 76.3%, the “TRPM8 Time Course Activity 10 min % of WS5” value (dose 24.4 nM) was 82.0% and the “TRPM8 Time Course Activity 50 sec” value (dose 24.4 nM) was 2311.0. For the same molecule, the “TRPM8 Time Course Activity 3 min” value (dose 24.4 nM) was 6441.0, the “TRPM8 Time Course Activity 5 min” value (dose 24.4 nM) was 7226.0 and the “TRPM8 Time Course Activity 10 min” value (dose 24.4 nM) was 7848.0. The “TRPM8 Time Course Activity 50 sec % of WS5” value (dose 48.8 nM) was 24.9%, the “TRPM8 Time Course Activity 3 min % of WS5” value (dose 48.8 nM) was 81.7% and the “TRPM8 Time Course Activity 5 min % of WS5” value (dose 48.8 nM) was 89.6%. The “TRPM8 Time Course Activity 10 min % of WS5” value (dose 48.8 nM) was 97.0%, the “TRPM8 Time Course Activity 50 sec” value (dose 48.8 nM) was 2502.0 and the “TRPM8 Time Course Activity 3 min” value (dose 48.8 nM) was 7721.0. The “TRPM8 Time Course Activity 5 min” value (dose 48.8 nM) was 8488.0, the “TRPM8 Time Course Activity 10 min” value (dose 48.8 nM) was 9289.0 and the “TRPM8 Time Course Activity 50 sec % of WS5” value (dose 97.6 nM) was 49.8%. For the same molecule, the “TRPM8 Time Course Activity 3 min % of WS5” value (dose 97.6 nM) was 106.9%, the “TRPM8 Time Course Activity 5 min % of WS5” value (dose 97.6 nM) was 113.5% and the “TRPM8 Time Course Activity 10 min % of WS5” value (dose 97.6 nM) was 118.8%. The “TRPM8 Time Course Activity 50 sec” value (dose 97.6 nM) was 5007.0, the “TRPM8 Time Course Activity 3 min” value (dose 97.6 nM) was 10101.0 and the “TRPM8 Time Course Activity 5 min” value (dose 97.6 nM) was 10747.0. For the same molecule, the “TRPM8 Time Course Activity 10 min” value (dose 97.6 nM) was 11375.0, the “TRPM8 Time Course Activity 50 sec % of WS5” value (dose 195 nM) was 72.4% and the “TRPM8 Time Course Activity 3 min % of WS5” value (dose 195 nM) was 121.5%. The “TRPM8 Time Course Activity 5 min % of WS5” value (dose 195 nM) was 126.8%, the “TRPM8 Time Course Activity 10 min % of WS5” value (dose 195 nM) was 129.8% and the “TRPM8 Time Course Activity 50 sec” value (dose 195 nM) was 7287.0. The “TRPM8 Time Course Activity 3 min” value (dose 195 nM) was 11477.0, the “TRPM8 Time Course Activity 5 min” value (dose 195 nM) was 12007.0 and the “TRPM8 Time Course Activity 10 min” value (dose 195 nM) was 12427.0. For the same molecule, the “TRPM8 Time Course Activity 50 sec % of WS5” value (dose 390 nM) was 87.1%, the “TRPM8 Time Course Activity 3 min % of WS5” value (dose 390 nM) was 126.5% and the “TRPM8 Time Course Activity 5 min % of WS5” value (dose 390 nM) was 129.9%. For the same molecule, the “TRPM8 Time Course Activity 10 min % of WS5” value (dose 390 nM) was 136.0%, the “TRPM8 Time Course Activity 50 sec” value (dose 390 nM) was 8766.0 and the “TRPM8 Time Course Activity 3 min” value (dose 390 nM) was 11955.0. The “TRPM8 Time Course Activity 5 min” value (dose 390 nM) was 12301.0, the “TRPM8 Time Course Activity 10 min” value (dose 390 nM) was 13026.0 and the “TRPM8 Time Course Activity 50 sec % of WS5” value (dose 781 nM) was 103.7%. For the same molecule, the “TRPM8 Time Course Activity 3 min % of WS5” value (dose 781 nM) was 136.4%, the “TRPM8 Time Course Activity 5 min % of WS5” value (dose 781 nM) was 138.3% and the “TRPM8 Time Course Activity 10 min % of WS5” value (dose 781 nM) was 147.4%. The “TRPM8 Time Course Activity 50 sec” value (dose 781 nM) was 10428.0, the “TRPM8 Time Course Activity 3 min” value (dose 781 nM) was 12887.0 and the “TRPM8 Time Course Activity 5 min” value (dose 781 nM) was 13091.0. For the same molecule, the “TRPM8 Time Course Activity 10 min” value (dose 781 nM) was 14116.0, the “TRPM8 Time Course Activity 50 sec % of WS5” value (dose 1.563 uM) was 112.6% and the “TRPM8 Time Course Activity 3 min % of WS5” value (dose 1.563 uM) was 134.0%. For the same molecule, the “TRPM8 Time Course Activity 5 min % of WS5” value (dose 1.563 uM) was 136.8%, the “TRPM8 Time Course Activity 10 min % of WS5” value (dose 1.563 uM) was 145.1% and the “TRPM8 Time Course Activity 50 sec” value (dose 1.563 uM) was 11331.0. For the same molecule, the “TRPM8 Time Course Activity 3 min” value (dose 1.563 uM) was 12663.0, the “TRPM8 Time Course Activity 5 min” value (dose 1.563 uM) was 12954.0 and the “TRPM8 Time Course Activity 10 min” value (dose 1.563 uM) was 13892.0. The “TRPM8 Time Course Activity 50 sec % of WS5” value (dose 3.125 uM) was 116.9%, the “TRPM8 Time Course Activity 3 min % of WS5” value (dose 3.125 uM) was 134.4% and the “TRPM8 Time Course Activity 5 min % of WS5” value (dose 3.125 uM) was 136.6%. For the same molecule, the “TRPM8 Time Course Activity 10 min % of WS5” value (dose 3.125 uM) was 145.1%, the “TRPM8 Time Course Activity 50 sec” value (dose 3.125 uM) was 11757.0 and the “TRPM8 Time Course Activity 3 min” value (dose 3.125 uM) was 12699.0. For the same molecule, the “TRPM8 Time Course Activity 5 min” value (dose 3.125 uM) was 12937.0, the “TRPM8 Time Course Activity 10 min” value (dose 3.125 uM) was 13890.0 and the “TRPM8 Time Course Activity 50 sec % of WS5” value (dose 6.25 uM) was 121.6%. The “TRPM8 Time Course Activity 3 min % of WS5” value (dose 6.25 uM) was 133.8%, the “TRPM8 Time Course Activity 5 min % of WS5” value (dose 6.25 uM) was 136.2% and the “TRPM8 Time Course Activity 10 min % of WS5” value (dose 6.25 uM) was 144.0%. For the same molecule, the “TRPM8 Time Course Activity 50 sec” value (dose 6.25 uM) was 12236.0, the “TRPM8 Time Course Activity 3 min” value (dose 6.25 uM) was 12644.0 and the “TRPM8 Time Course Activity 5 min” value (dose 6.25 uM) was 12891.0. The “TRPM8 Time Course Activity 10 min” value (dose 6.25 uM) was 13793.0, the “TRPM8 Time Course Activity 50 sec % of WS5” value (dose 12.5 uM) was 123.4% and the “TRPM8 Time Course Activity 3 min % of WS5” value (dose 12.5 uM) was 132.3%. The “TRPM8 Time Course Activity 5 min % of WS5” value (dose 12.5 uM) was 135.2%, the “TRPM8 Time Course Activity 10 min % of WS5” value (dose 12.5 uM) was 143.6% and the “TRPM8 Time Course Activity 50 sec” value (dose 12.5 uM) was 12415.0. The “TRPM8 Time Course Activity 3 min” value (dose 12.5 uM) was 12501.0, the “TRPM8 Time Course Activity 5 min” value (dose 12.5 uM) was 12801.0 and the “TRPM8 Time Course Activity 10 min” value (dose 12.5 uM) was 13755.0. For the same molecule, the “TRPM8 Time Course Activity 50 sec % of WS5” value (dose 25 uM) was 120.4%, the “TRPM8 Time Course Activity 3 min % of WS5” value (dose 25 uM) was 126.9% and the “TRPM8 Time Course Activity 5 min % of WS5” value (dose 25 uM) was 129.7%. The “TRPM8 Time Course Activity 10 min % of WS5” value (dose 25 uM) was 137.2%, the “TRPM8 Time Course Activity 50 sec” value (dose 25 uM) was 12110.0 and the “TRPM8 Time Course Activity 3 min” value (dose 25 uM) was 11993.0. For the same molecule, the “TRPM8 Time Course Activity 5 min” value (dose 25 uM) was 12284.0, the “TRPM8 Time Course Activity 10 min” value (dose 25 uM) was 13140.0 and the “TRPM8 Time Course Activity 50 sec % of WS5” value (dose 50 uM) was 125.7%. For the same molecule, the “TRPM8 Time Course Activity 3 min % of WS5” value (dose 50 uM) was 130.7%, the “TRPM8 Time Course Activity 5 min % of WS5” value (dose 50 uM) was 133.5% and the “TRPM8 Time Course Activity 10 min % of WS5” value (dose 50 uM) was 137.6%. For the same molecule, the “TRPM8 Time Course Activity 50 sec” value (dose 50 uM) was 12648.0, the “TRPM8 Time Course Activity 3 min” value (dose 50 uM) was 12352.0 and the “TRPM8 Time Course Activity 5 min” value (dose 50 uM) was 12644.0. For the same molecule, the “TRPM8 Time Course Activity 10 min” value (dose 50 uM) was 13179.0, the “TRPM8 Time Course Activity 50 sec % of WS5” value (dose 100 uM) was 121.7% and the “TRPM8 Time Course Activity 3 min % of WS5” value (dose 100 uM) was 125.2%. The “TRPM8 Time Course Activity 5 min % of WS5” value (dose 100 uM) was 127.5%, the “TRPM8 Time Course Activity 10 min % of WS5” value (dose 100 uM) was 128.3% and the “TRPM8 Time Course Activity 50 sec” value (dose 100 uM) was 12246.0. For the same molecule, the “TRPM8 Time Course Activity 3 min” value (dose 100 uM) was 11826.0, the “TRPM8 Time Course Activity 5 min” value (dose 100 uM) was 12074.0 and the “TRPM8 Time Course Activity 10 min” value (dose 100 uM) was 12287.0.
